Results as given in PubChem BioAssay (NCI).
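Test compounds were applied to cells in 96-well plates for 48 hours at 5 doses. The concentration for 50% growth inhibition is given as GI50. TGI denotes the concentration required for complete inhibition of growth.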

How the values were obtained:
Test in all cases: DTP human tumour cell line panel, 48 h
[1] = test system: 786-0 renal
[2] = test system: A498 renal
[3] = test system: A549 NSCLC
[4] = test system: ACHN renal
[5] = test system: BT-549 breast
[6] = test system: CAKI-1 renal
[7] = test system: CCRF-CEM leukemia
[8] = test system: COLO 205 colon
[9] = test system: DU-145 prostate
[10] = test system: EKVX NSCLC
[11] = test system: HCC-2998 colon
[12] = test system: HCT-116 colon
[13] = test system: HCT-15 colon
[14] = test system: HL-60(TB) leukemia
[15] = test system: HOP-62 NSCLC
[16] = test system: HOP-92 NSCLC
[17] = test system: HS 578T breast
[18] = test system: IGROV1 ovarian
[19] = test system: K-562 leukemia
[20] = test system: KM12 colon
[21] = test system: LOX IMVI melanoma
[22] = test system: M14 melanoma
[23] = test system: MALME-3M melanoma
[24] = test system: MCF7 breast
[25] = test system: MDA-MB-231 breast
[26] = test system: MOLT-4 leukemia
[27] = test system: NCI-H226 lung
[28] = test system: NCI-H23 lung

COc1ccc(/C(=C2\O[C@@H]([C@H]3COC(C)(C)O3)[C@H]3OC(C)(C)O[C@@H]23)c2cc(OC)c(OC)c(OC)c2)cc1O
GI50 [1]: 21.1 µM
TGI [1]: 60.6 µM
GI50 [2]: 35.7 µM
TGI [2]: > 100 µM
GI50 [3]: 23.2 µM
TGI [3]: > 100 µM
GI50 [4]: 9.31 µM
TGI [4]: > 100 µM
GI50 [5]: 5.39 µM
TGI [5]: > 100 µM
GI50 [6]: 37.3 µM
TGI [6]: > 100 µM
GI50 [7]: 3.75 µM
TGI [7]: > 100 µM
GI50 [8]: 17.4 µM
TGI [8]: > 100 µM
GI50 [9]: 3.29 µM
TGI [9]: 13.3 µM
GI50 [10]: 55.7 µM
TGI [10]: > 100 µM
GI50 [11]: 13.2 µM
TGI [11]: > 100 µM
GI50 [12]: 4.14 µM
TGI [12]: > 100 µM
GI50 [13]: 4.51 µM
TGI [13]: > 100 µM
GI50 [14]: 3.39 µM
TGI [14]: 23.3 µM
GI50 [15]: 5.93 µM
TGI [15]: 25.5 µM
GI50 [16]: 5.45 µM
TGI [16]: 31.8 µM
GI50 [17]: 2.83 µM
TGI [17]: 7.88 µM
GI50 [18]: 33.2 µM
TGI [18]: > 100 µM
GI50 [19]: 3.22 µM
TGI [19]: > 100 µM
GI50 [20]: 3.99 µM
TGI [20]: > 100 µM
GI50 [21]: 5.18 µM
TGI [21]: > 100 µM
GI50 [22]: 2.4 µM
TGI [22]: 5.9 µM
GI50 [23]: 5.46 µM
TGI [23]: > 100 µM
GI50 [24]: 3.78 µM
TGI [24]: > 100 µM
GI50 [25]: 4.58 µM
TGI [25]: 30.7 µM
GI50 [26]: 6.93 µM
TGI [26]: > 100 µM
GI50 [27]: 25.9 µM
TGI [27]: > 100 µM
GI50 [28]: 7.96 µM
TGI [28]: 46 µM
